In US20180320217A1, “METHODS FOR SAMPLING AND MEASURING ORAL LAVAGE PROTEINS” (The Procter & Gamble Company, priority 2017, published 2018):
Several values for one entry are separate records, joined by “and”; a condition that tells them apart may be missing. Identical values can stand only once.

How the values were obtained:
[1] = system: Malate dehydrogenase and diaphorase; assay: Formation of formazan dyes: Malate dehydrogenase, diaphorase and malate (TABLE 10); type: biochemical, pig heart
diaphorase [2] = assay: Formation of formazan dyes: NADH, diaphorase and malate (TABLE 8); type: biochemical, Clostridium kluyveri
oral lavage [3] = assay: Formation of formazan dyes: oral lavage and diaphorase, not malate (TABLE 11); type: biochemical, human
[4] = system: Malate dehydrogenase and diaphorase; assay: Formation of formazan dyes: Malate dehydrogenase and diaphorase, absence of malate (TABLE 9); type: biochemical, pig heart
oral lavage [5] = assay: Formation of formazan dyes: oral lavage, malate and diaphorase (TABLE 12); type: biochemical, human
diaphorase [6] = assay: Formation of formazan dyes: NADH and diaphorase, absence of malate (TABLE 7); type: biochemical, Clostridium kluyveri
[7] = Formation of formazan dyes: control buffer and 1-Methoxy PMS, absence of malate (TABLE 21); type: biochemical
[8] = Formation of formazan dyes: NADH and 1-methoxy PMS, absence of malate (TABLE 15); type: biochemical
Malate dehydrogenase = target: T1, Malate dehydrogenase (Sus scrofa, UniProt P00346); assay: Formation of formazan dyes: Malate dehydrogenase and 1-Methoxy PMS, absence of malate (TABLE 17); type: biochemical, pig heart; design: L-malate dehydrogenase (pig heart); purchased Sigma-Aldrich 10127248001 / 10127914001
T1 sequence (P00346 25-338): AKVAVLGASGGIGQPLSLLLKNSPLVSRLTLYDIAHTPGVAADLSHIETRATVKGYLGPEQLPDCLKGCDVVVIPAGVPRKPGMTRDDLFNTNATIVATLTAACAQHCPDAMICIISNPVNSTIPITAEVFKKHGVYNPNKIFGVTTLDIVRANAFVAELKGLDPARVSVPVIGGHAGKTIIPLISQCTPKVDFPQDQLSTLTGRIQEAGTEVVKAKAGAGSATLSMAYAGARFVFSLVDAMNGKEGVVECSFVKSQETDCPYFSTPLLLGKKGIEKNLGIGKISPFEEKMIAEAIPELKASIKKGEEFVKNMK

oral lavage [9] = assay: Formation of formazan dyes: oral lavage, malate and 1-Methoxy PMS (TABLE 20); type: biochemical, human
[10] = Formation of formazan dyes: control buffer, malate and 1-Methoxy PMS (TABLE 22); type: biochemical
oral lavage [11] = assay: Formation of formazan dyes: oral lavage and 1-Methoxy PMS, absence of malate (TABLE 19); type: biochemical, human

In the case of `COc1cc(-c2ccc(-n3nc(-c4ccccc4)n[n+]3-c3ccc([N+](=O)[O-])cc3)c(OC)c2)ccc1-n1nc(-c2ccccc2)n[n+]1-c1ccc([N+](=O)[O-])cc1` [Nitro-TB, 3,3′-[3,3′-Dimethoxy-(1,1′-biphenyl)-4,4′-diyl]-bis[2-(4-nitrophenyl)-5-phenyl-2H-tetrazolium chloride], the “Formation of formazan dyes, absorbance, Means 0 h” value (“Formation … Means 0 h” below) [1] is reported as 0.56, the “Formation of formazan dyes, absorbance, Means 1 h” value (from here on “Formation … Means 1 h”) [1] is reported as 0.88 and the “Formation of formazan dyes, absorbance, Means 2 h” value (shortened to “Formation … Means 2 h”) [1] is reported as 1.08. For the same compound, the “Formation of formazan dyes, absorbance, Means 3 h” value (“Formation … Means 3 h” below) [1] was 1.23, the “Formation of formazan dyes, absorbance, Means 4 h” value (from here on “Formation … Means 4 h”) [1] was 1.46 and the “Formation of formazan dyes, absorbance, Means 6 h” value (shortened to “Formation … Means 6 h”) [1] was 1.73. The “Formation of formazan dyes, absorbance, Means 8 h” value (“Formation … Means 8 h” below) [1] was 1.95, the “Formation of formazan dyes, absorbance, Means 10 h” value (from here on “Formation … Means 10 h”) [1] was 2.16 and the “Formation of formazan dyes, absorbance, Means 12 h” value (“Formation … Means 12 h” below) [1] was 2.35. For the same compound, the “conversion to reduced formazan dyes” value [1] was “converted to reduced formazan dyes in a time-dependent manner”, the “Formation … Means 0 h” value (diaphorase [2]) was 1.03 and the “Formation … Means 1 h” value (diaphorase [2]) was 1.15. The “Formation … Means 2 h” value (diaphorase [2]) was 1.16, the “Formation … Means 3 h” value (diaphorase [2]) was 1.17 and the “Formation … Means 4 h” value (diaphorase [2]) was 1.22. For the same compound, the “Formation … Means 6 h” value (diaphorase [2]) was 1.27, the “Formation … Means 8 h” value (diaphorase [2]) was 1.33 and the “Formation … Means 10 h” value (diaphorase [2]) was 1.37. The “Formation … Means 12 h” value (diaphorase [2]) was 1.42, the “Formation … Means 0 h” value (oral lavage [3]) was 0.56 and the “Formation … Means 1 h” value (oral lavage [3]) was 0.79. The “Formation … Means 2 h” value (oral lavage [3]) was 0.85, the “Formation … Means 3 h” value (oral lavage [3]) was 0.81 and the “Formation … Means 4 h” value (oral lavage [3]) was 0.88. The “Formation … Means 6 h” value (oral lavage [3]) was 0.87, the “Formation … Means 8 h” value (oral lavage [3]) was 0.88 and the “Formation … Means 10 h” value (oral lavage [3]) was 0.86. For the same compound, the “Formation … Means 12 h” value (oral lavage [3]) was 0.87, the “reduction to formazan dyes by pooled oral lavage” value (oral lavage [3]) was “changed to formazan dyes in a significant amount” and the “Formation … Means 0 h” value [4] was 0.15. For the same compound, the “Formation … Means 1 h” value [4] was 0.20, the “Formation … Means 2 h” value [4] was 0.23 and the “Formation … Means 3 h” value [4] was 0.25. The “Formation … Means 4 h” value [4] was 0.36, the “Formation … Means 6 h” value [4] was 0.39 and the “Formation … Means 8 h” value [4] was 0.40. For the same compound, the “Formation … Means 10 h” value [4] was 0.41, the “Formation … Means 12 h” value [4] was 0.42 and the “reduction of tetrazolium dye in the absence of substrate malate” value [4] was “remained largely in oxidized forms”. For the same compound, the “Formation … Means 0 h” value (oral lavage [5]) was 0.52, the “Formation … Means 1 h” value (oral lavage [5]) was 0.75 and the “Formation … Means 2 h” value (oral lavage [5]) was 0.80. The “Formation … Means 3 h” value (oral lavage [5]) was 0.75, the “Formation … Means 4 h” value (oral lavage [5]) was 0.88 and the “Formation … Means 6 h” value (oral lavage [5]) was 1.00. For the same compound, the “Formation … Means 8 h” value (oral lavage [5]) was 1.09, the “Formation … Means 10 h” value (oral lavage [5]) was 1.20 and the “Formation … Means 12 h” value (oral lavage [5]) was 1.30. For the same compound, the “Formation … Means 0 h” value (diaphorase [6]) was 1.49, the “Formation … Means 1 h” value (diaphorase [6]) was 1.71 and the “Formation … Means 2 h” value (diaphorase [6]) was 1.73. For the same compound, the “Formation … Means 3 h” value (diaphorase [6]) was 1.71, the “Formation … Means 4 h” value (diaphorase [6]) was 1.74 and the “Formation … Means 6 h” value (diaphorase [6]) was 1.86. The “Formation … Means 8 h” value (diaphorase [6]) was 1.83, the “Formation … Means 10 h” value (diaphorase [6]) was 1.85 and the “Formation … Means 12 h” value (diaphorase [6]) was 1.82. For the same compound, the “Absorbance, formation of formazan dyes (Means)” value (shortened to “Absorbance, formation”) [7] was 0.33 and 0.41 and 0.42 and 0.44 and 0.39 and 0.45 and 0.43, the “formation of formazan dyes / precipitates with 1-methoxy PMS and NADH” value [8] was “formed precipitates” and the “Absorbance, formation” value (Malate dehydrogenase) was 0.31 and 0.40 and 0.39 and 0.35 and 0.36 and 0.32 and 0.41. For the same compound, the “Absorbance, formation” value (oral lavage [9]) was 0.35 and 0.37 and 0.40 and 0.43 and 0.29 and 0.30 and 0.31, the “Means absorbance 0 h” value [10] was 0.16 and the “Means absorbance 1 h” value [10] was 0.16. The “Means absorbance 2 h” value [10] was 0.17, the “Means absorbance 3 h” value [10] was 0.19 and the “Means absorbance 4 h” value [10] was 0.19. The “Means absorbance 6 h” value [10] was 0.24, the “Means absorbance 8 h” value [10] was 0.29 and the “Means absorbance 10 h” value [10] was 0.18. For the same compound, the “Means absorbance 12 h” value [10] was 0.23 and the “Absorbance, formation” value (oral lavage [11]) was 0.52 and 0.58 and 0.61 and 0.63 and 0.60 and 0.68 and 0.73 and 0.82.
